The assay concerns Plasmodium berghei. The experiment in a line: Luciferase/luciferin-expressing antifolate-resistant parasites were used to infect a culture of HepG2 cells that were pre-incubated with compounds. Infected hepatocytes emit light due to the luciferase reaction. Assay results are presented as the percent inhibition of light emission compared to control. […]. Particulars: sporozoite; for IC90: read-out: LUCIFERASE INFECTION ASSAY - IC90. The format is functional.

The mark [1] stands for this setting: read-out: LUCIFERASE INFECTION ASSAY - IC50.

SMILES strings stand for the structures.

Experimental findings from ChEMBL document CHEMBL4483862, “Open-source discovery of chemical leads for next-generation chemoprotective antimalarials” (2018) are described below.

As for `COc1ccc(-c2cc(NC(=O)C3CCN(C(=O)C(C)C)CC3)ccc2OC(F)F)cc1`, the IC90 was over 10 µM. For the same compound, the IC50 (PBLUC_HILL_SLOPE 1.23, PBLUC_R_SQUARED 0.265, read-out: LUCIFERASE INFECTION ASSAY - IC50) worked out at 3.95 µM.

With `COC(=O)c1ccccc1N1C(=O)C=CC1=O`, the IC90 is 5.93 µM. Where the note is “FFLUC_HILL_SLOPE 4.6, FFLUC_R_SQUARED 0.0459, HEPG2TOX_HILL_SLOPE 7.42, HEPG2TOX_R_SQUARED 0.806, PBLUC_HILL_SLOPE 7.78, PBLUC_R_SQUARED 0.766, read-out: LUCIFERASE INFECTION ASSAY - IC50”, the IC50 is 4.47 µM.

As for `O=C(NCCC(=O)N1CCc2sccc2C1c1ccccc1)c1ccsc1` (stereo not drawn), the IC90 came out at 5.51 µM. Besides, the IC50 (PBLUC_HILL_SLOPE 101, PBLUC_R_SQUARED 0.289, read-out: LUCIFERASE INFECTION ASSAY - IC50) amounted to 5.39 µM.

With `CC(Sc1nc(N)c2ccsc2n1)c1nc(-c2ccccc2)no1` (stereo not drawn), the IC90 is over 10 µM. Under “PBLUC_HILL_SLOPE 3.96, PBLUC_R_SQUARED 0.141, read-out: LUCIFERASE INFECTION ASSAY - IC50”, the IC50 is over 10 µM.

For the compound `Cc1ccc(S(=O)(=O)Nc2cc(SCC(=O)O)c(O)c3ccccc23)cc1`, the IC90 is over 10 µM. Besides, the IC50 (PBLUC_HILL_SLOPE 1.74, PBLUC_R_SQUARED 0.143, read-out: LUCIFERASE INFECTION ASSAY - IC50) was over 10 µM.

With `CCOc1cc(/C=C/c2nc3cc(C)c(C)cc3s2)ccc1O`, the IC90 was over 10 µM. Moreover, for the setting “HEPG2TOX_HILL_SLOPE 6.63, HEPG2TOX_R_SQUARED 0.787, PBLUC_HILL_SLOPE 3.12, PBLUC_R_SQUARED 0.499, read-out: LUCIFERASE INFECTION ASSAY - IC50”, the IC50 was found to be 6.52 µM.

As to `COc1ccc(-n2c(C)cc(/C=C(\C#N)C(=O)OCC(=O)Nc3ccc(Cl)c(C(F)(F)F)c3)c2C)cc1`, the IC90 was over 10 µM. Under setting [1], the IC50 is over 10 µM.

In the case of `CC(C)c1cccc(N2CC(C(=O)N3CCC(C(N)=O)CC3)CC2=O)c1` (stereo not drawn), the IC90 was over 10 µM. Further, the IC50 under setting [1] is over 10 µM.

Consider `FC(F)(F)c1ccc(N/N=C/c2sc(N3CCOCC3)nc2-c2ccccc2)c(Cl)c1`, for which the IC90 was over 10 µM. Further, for the setting “FFLUC_HILL_SLOPE 1.6, FFLUC_R_SQUARED 0.81, read-out: LUCIFERASE INFECTION ASSAY - IC50”, the IC50 is over 10 µM.

`CCN1CCN(C(=O)C23CC4CC(C2)CC(c2ccc(C)cc2)(C4)C3)CC1`: the IC90 was over 10 µM. Under setting [1], the IC50 is over 10 µM.

Take `CCCn1c(NC(=O)c2cc(-c3cccs3)nc3ccccc23)nc2ccccc21`: the IC90 was over 10 µM. For the same compound, for the setting “PBLUC_HILL_SLOPE 14.7, PBLUC_R_SQUARED 0.767, read-out: LUCIFERASE INFECTION ASSAY - IC50”, the IC50 is 9.26 µM.

Take `COc1ccc(C(=O)/C(=C/c2ccc(C)cc2C)c2nc3ccccc3[nH]2)cc1`: the IC90 came out at 4.07 µM. Further, the IC50 (FFLUC_HILL_SLOPE 13.7, FFLUC_R_SQUARED 0.282, HEPG2TOX_HILL_SLOPE 10.4, HEPG2TOX_R_SQUARED 0.664, PBLUC_HILL_SLOPE 15.9, PBLUC_R_SQUARED 0.277, read-out: LUCIFERASE INFECTION ASSAY - IC50) turned out to be 3.54 µM.

With `N#CC1=C2C=CC=CN2C(c2ccccc2)(C(F)(F)F)N=C1SCC(=O)Nc1ccc(Cl)c(Cl)c1` (stereo not drawn), the IC90 was over 10 µM. The IC50 under setting [1] was over 10 µM.

`CCc1cccc2c(/C=C(\C#N)c3nc4ccccc4[nH]3)c[nH]c12`: the IC90 is over 10 µM. The IC50 (HEPG2TOX_HILL_SLOPE 6.57, HEPG2TOX_R_SQUARED 0.521, read-out: LUCIFERASE INFECTION ASSAY - IC50) was over 10 µM.

For the compound `Cc1ccc(Sc2ccc(NC(=S)NCC3CCCO3)cc2)c(C)c1` (stereo not drawn), the IC90 was over 10 µM. The IC50 (PBLUC_HILL_SLOPE 9.48, PBLUC_R_SQUARED 0.239, read-out: LUCIFERASE INFECTION ASSAY - IC50) was determined as 8.41 µM.

For `Fc1ccc(C(Nc2ncnc3ccsc23)c2cccs2)cc1` (stereo not drawn), the IC90 was found to be 6.3 µM. Under “HEPG2TOX_HILL_SLOPE 16.1, HEPG2TOX_R_SQUARED 0.824, PBLUC_HILL_SLOPE 385, PBLUC_R_SQUARED 0.0246, read-out: LUCIFERASE INFECTION ASSAY - IC50”, the IC50 worked out at 6.26 µM.

On to `O=[N+]([O-])c1cc(-c2nc(-c3cc(C(F)(F)F)cc(C(F)(F)F)c3)no2)cs1`, for which the IC90 is over 8.06 µM. Moreover, where the note is “HEPG2TOX_HILL_SLOPE 11.5, HEPG2TOX_R_SQUARED 0.674, read-out: LUCIFERASE INFECTION ASSAY - IC50”, the IC50 was over 8.06 µM.

In the case of `Cc1cc(C(=O)Cn2cnc3ccccc3c2=O)c(C)n1-c1ccccc1F`, the IC90 is over 10 µM. The IC50 (HEPG2TOX_HILL_SLOPE 1.86, HEPG2TOX_R_SQUARED 0.464, PBLUC_HILL_SLOPE 1.21, PBLUC_R_SQUARED 0.574, read-out: LUCIFERASE INFECTION ASSAY - IC50) was 3.66 µM.

With `CC(Oc1ccc(Cl)cc1)C(=O)Nc1sccc1C(N)=O` (stereo not drawn), the IC90 was determined as 4.27 µM. Further, the half-inhibitory concentration (IC50) (PBLUC_HILL_SLOPE 15.8, PBLUC_R_SQUARED 0.448, read-out: LUCIFERASE INFECTION ASSAY - IC50) came to 3.72 µM.

As to `C/C=C(/C(=C/C)c1ccc(O)cc1)c1ccc(O)cc1` [DIENESTROL], the IC90 is over 12.4 µM. In addition, the IC50 (FFLUC_HILL_SLOPE 1.35, FFLUC_R_SQUARED 0.489, HEPG2TOX_HILL_SLOPE 1.17, HEPG2TOX_R_SQUARED 0.908, PBLUC_HILL_SLOPE 0.733, PBLUC_R_SQUARED 0.69, read-out: LUCIFERASE INFECTION ASSAY - IC50) was 1.24 µM.

For the compound `OCc1ccc(-c2cnc3ccc(-c4ccoc4)nn23)cc1`, the IC90 is over 10 µM. Also, under setting [1], the IC50 came out at 4.97 µM.

Regarding `Cc1ccc2c(Cl)cc(Cl)c(OC(=O)C3CC3)c2n1`, the IC90 is 6.06 µM. Under “HEPG2TOX_HILL_SLOPE 1.04, HEPG2TOX_R_SQUARED 0.959, PBLUC_HILL_SLOPE 1.84, PBLUC_R_SQUARED 0.861, read-out: LUCIFERASE INFECTION ASSAY - IC50”, the IC50 was 1.84 µM.

As to `Cc1ccc(NC(=O)Nc2cnn(-c3ccc([N+](=O)[O-])cc3)c2C(F)(F)F)cc1F`, the IC90 was 3.46 µM. Under “FFLUC_HILL_SLOPE 2.79, FFLUC_R_SQUARED 0.315, HEPG2TOX_HILL_SLOPE 0.0932, HEPG2TOX_R_SQUARED 0.068, PBLUC_HILL_SLOPE 11.4, PBLUC_R_SQUARED 0.0999, read-out: LUCIFERASE INFECTION ASSAY - IC50”, the IC50 was determined as 2.85 µM.

In the case of `Cc1cccc(C)c1N1C(=O)CC(N2CCCC(c3nc4ccccc4s3)C2)C1=O` (stereo not drawn), the IC90 was determined as 9.05 µM. In addition, the IC50 (PBLUC_HILL_SLOPE 1.45, PBLUC_R_SQUARED 0.739, read-out: LUCIFERASE INFECTION ASSAY - IC50) was determined as 1.99 µM.

Regarding `Nc1nc(SCc2cc(=O)n3c(n2)sc2ccccc23)nc2sccc12`, the IC90 was over 10 µM. Also, the IC50 under setting [1] is over 10 µM.

Take `CN(c1ccccc1)S(=O)(=O)c1cccc(NC(=O)Nc2ccccc2[N+](=O)[O-])c1`: the IC90 was over 10 µM. For the same compound, under setting [1], the IC50 is over 10 µM.

Consider `CC(C)Oc1ccccc1Nc1nc(=O)cn[nH]1`, for which the IC90 is over 13.4 µM. Moreover, the IC50 under setting [1] is over 13.4 µM.

As for `Cc1nn(Cc2ccccc2Cl)c2sc(C(=O)OC(C)c3nc(=O)c4ccccc4[nH]3)cc12` (stereo not drawn), the IC90 was over 10 µM. Under “PBLUC_HILL_SLOPE 18.8, PBLUC_R_SQUARED 0.168, read-out: LUCIFERASE INFECTION ASSAY - IC50”, the IC50 turned out to be 9.99 µM.

As to `CC(C)c1cc(NCc2ccccn2)n2ncc(-c3ccccc3)c2n1`, the IC90 turned out to be 3.94 µM. For the same compound, the IC50 (PBLUC_HILL_SLOPE 12.5, PBLUC_R_SQUARED 0.318, read-out: LUCIFERASE INFECTION ASSAY - IC50) turned out to be 3.3 µM.

Regarding `Fc1ccc(Oc2ccc(CNc3ncnc4nc[nH]c34)cn2)cc1`, the IC90 is over 10 µM. Where the note is “HEPG2TOX_HILL_SLOPE 3.2, HEPG2TOX_R_SQUARED 0.895, PBLUC_HILL_SLOPE 3.02, PBLUC_R_SQUARED 0.0659, read-out: LUCIFERASE INFECTION ASSAY - IC50”, the IC50 turned out to be 5.84 µM.

Regarding `COc1cncc(-c2cncc(Nc3cccc(Cl)c3)c2)c1`, the IC90 is 9.85 µM. The IC50 (PBLUC_HILL_SLOPE 20.7, PBLUC_R_SQUARED 0.436, read-out: LUCIFERASE INFECTION ASSAY - IC50) came to 8.86 µM.

With `COc1ccc(-c2nc3cnc(Nc4cccc(OC(F)(F)F)c4)cc3n2C)cc1OC`, the IC90 was over 10 µM. The IC50 (PBLUC_HILL_SLOPE 2.08, PBLUC_R_SQUARED 0.244, read-out: LUCIFERASE INFECTION ASSAY - IC50) was over 10 µM.

In the case of `CC(NC(=O)c1cccc(Nc2ncccn2)c1)c1cccc(C(F)(F)F)c1` (stereo not drawn), the IC90 stood at 6.34 µM. For the same compound, under setting [1], the IC50 turned out to be 0.729 µM.

Regarding `Cc1ccc(-n2c(C)cc(/C=C(\C#N)c3nc4ccccc4s3)c2C)cc1C`, the IC90 is over 10 µM. Moreover, the IC50 under setting [1] was over 10 µM.

`Cc1ccc(-n2c(C)cc(C3=NN=C(NC4CC4)SC3)c2C)cc1C`: the IC90 was 3.59 µM.

For `CCCc1cc(=O)n(-c2ccc(Cl)cc2)[nH]1`, the IC90 came out at 5.8 µM. Further, where the note is “FFLUC_HILL_SLOPE 16.5, FFLUC_R_SQUARED 0.266, HEPG2TOX_HILL_SLOPE 6.52, HEPG2TOX_R_SQUARED 0.85, PBLUC_HILL_SLOPE 14.3, PBLUC_R_SQUARED 0.712, read-out: LUCIFERASE INFECTION ASSAY - IC50”, the IC50 was 4.97 µM.

With `CC(=O)Nc1ccc(NC(=O)c2cc(C)n(C3CCCCC3)c2C)cc1`, the concentration for an effect of 90% (IC90) was over 10 µM. The IC50 (HEPG2TOX_HILL_SLOPE 0.564, HEPG2TOX_R_SQUARED 0.119, read-out: LUCIFERASE INFECTION ASSAY - IC50) is over 10 µM.

In general, IC50 refers to the concentration needed to halve the response being measured. What is called IC90 is the concentration at which the effect reaches the 90% level.
